Experimental data reported in ChEMBL document CHEMBL1201862, “PubChem BioAssay data set” (2004).
Calls of active or inactive are those of the source.

What was measured:
[1] = biological target: Genome polyprotein (dengue virus type 2, UniProt P29990); assay: Dengue-2 NS5 methyltransferase inhibitors, primary screen, biochemical, confirmation dose response (AID 588689); assay type: functional
[2] = cells; assay type: functional
[3] = biological target: Heat shock protein HSP 90-alpha (Homo sapiens, UniProt P07900); assay type: functional, organism-based
[4] = Vero E6 cell cytotoxicity, dose response, cytotoxicity control for non-replicating M. tuberculosis project, secondary assay (AID 492998); assay type: functional, VeroE6; conditions: Vero C1008
[5] = THP-1 cell cytotoxicity, dose response, cytotoxicity control for non-replicating M. tuberculosis project (AID 489025); assay type: functional
[6] = biological target: T1, High affinity choline transporter 1 (Homo sapiens, UniProt Q9GZV3); assay: CHT inhibitors, dose response, cell-based, 5-point CRC, membrane potential dye (AID 504840); assay type: functional
T1 sequence (Q9GZV3 whole entry): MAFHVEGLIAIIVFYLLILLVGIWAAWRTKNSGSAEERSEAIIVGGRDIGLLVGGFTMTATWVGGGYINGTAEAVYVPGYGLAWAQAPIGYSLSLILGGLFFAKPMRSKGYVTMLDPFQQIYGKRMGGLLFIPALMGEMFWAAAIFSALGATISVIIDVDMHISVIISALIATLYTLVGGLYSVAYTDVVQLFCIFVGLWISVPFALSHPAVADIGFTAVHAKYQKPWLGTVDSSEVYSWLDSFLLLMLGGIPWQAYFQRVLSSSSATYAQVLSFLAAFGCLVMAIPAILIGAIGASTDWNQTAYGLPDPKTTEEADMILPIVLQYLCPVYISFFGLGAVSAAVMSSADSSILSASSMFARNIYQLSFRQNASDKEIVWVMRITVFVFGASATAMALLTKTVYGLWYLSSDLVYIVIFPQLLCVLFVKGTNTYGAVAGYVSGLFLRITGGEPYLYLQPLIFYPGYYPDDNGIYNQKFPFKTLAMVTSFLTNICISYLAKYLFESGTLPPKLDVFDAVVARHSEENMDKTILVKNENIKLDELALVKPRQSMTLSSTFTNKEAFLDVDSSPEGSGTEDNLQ

[7] = biological target: Glucose-6-phosphate 1-dehydrogenase (Homo sapiens, UniProt P11413); assay: human G6PD enzyme inhibitors, dose response, selectivity assay for P. falciparum G6PD inhibitor project, biochemical, fluorescence (AID 504792); assay type: functional
[8] = system: HEK293; assay: inhibitors of LMP1-driven NF-kB reporter, dose response, cell-based, HEK293, luciferase, cherry-pick (AID 588343); assay type: functional; conditions: Homo sapiens
[9] = biological target: Cytochrome P450 2C19 (Homo sapiens, UniProt P33261); assay: Cytochrome panel assay with activity outcomes. Panel member name: p450-cyp2c19 Compounds with AC50 equal or less than 10 uM are considered active; assay type: functional; conditions: read-out: AC50
[10] = biological target: Cytochrome P450 2C9 (Homo sapiens, UniProt P11712)
[11] = biological target: Cytochrome P450 3A4 (Homo sapiens, UniProt P08684);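 note: CYP3A4 tested as one member of a cytochrome P450 panel screen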
[12] = Luminescence Cell-Based Dose Confirmation HTS to Identify Inhibitors of Platelet Dense Granule Release. [Related pubchem assays: 1663 (Primary HTS), 1678 (Summary of Project)]; assay type: functional
[13] = biological target: Luciferin 4-monooxygenase (Photinus pyralis, UniProt P08659); assay: firefly luciferase enzyme inhibitors, dose response, biochemical, luminescence (AID 1891)
[14] = biological target: T2, Coagulation factor XII (Homo sapiens, UniProt P00748); assay type: functional;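 note: activated factor XIIa alpha cleaving a fluorogenic AMC peptide substrate; inhibitor potency from loss of enzyme activity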
T2 sequence (P00748 whole entry): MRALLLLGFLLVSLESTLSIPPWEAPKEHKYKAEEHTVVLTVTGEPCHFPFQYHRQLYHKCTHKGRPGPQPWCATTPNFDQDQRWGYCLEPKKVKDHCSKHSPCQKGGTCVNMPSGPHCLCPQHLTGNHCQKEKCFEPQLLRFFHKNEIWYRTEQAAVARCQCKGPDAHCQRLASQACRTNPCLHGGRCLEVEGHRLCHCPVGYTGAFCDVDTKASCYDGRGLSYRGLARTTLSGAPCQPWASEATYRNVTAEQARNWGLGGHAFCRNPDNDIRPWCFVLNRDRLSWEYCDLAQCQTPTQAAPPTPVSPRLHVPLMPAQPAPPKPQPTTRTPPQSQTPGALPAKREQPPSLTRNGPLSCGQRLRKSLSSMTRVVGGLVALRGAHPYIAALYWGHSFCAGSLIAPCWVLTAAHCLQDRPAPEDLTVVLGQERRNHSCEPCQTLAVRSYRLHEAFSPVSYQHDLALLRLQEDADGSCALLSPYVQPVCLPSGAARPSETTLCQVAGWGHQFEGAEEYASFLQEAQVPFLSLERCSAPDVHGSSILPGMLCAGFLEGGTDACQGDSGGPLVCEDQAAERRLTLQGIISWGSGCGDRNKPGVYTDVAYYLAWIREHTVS

Glucose-6-phosphate 1-dehydrogenase, sequence (P11413 whole entry): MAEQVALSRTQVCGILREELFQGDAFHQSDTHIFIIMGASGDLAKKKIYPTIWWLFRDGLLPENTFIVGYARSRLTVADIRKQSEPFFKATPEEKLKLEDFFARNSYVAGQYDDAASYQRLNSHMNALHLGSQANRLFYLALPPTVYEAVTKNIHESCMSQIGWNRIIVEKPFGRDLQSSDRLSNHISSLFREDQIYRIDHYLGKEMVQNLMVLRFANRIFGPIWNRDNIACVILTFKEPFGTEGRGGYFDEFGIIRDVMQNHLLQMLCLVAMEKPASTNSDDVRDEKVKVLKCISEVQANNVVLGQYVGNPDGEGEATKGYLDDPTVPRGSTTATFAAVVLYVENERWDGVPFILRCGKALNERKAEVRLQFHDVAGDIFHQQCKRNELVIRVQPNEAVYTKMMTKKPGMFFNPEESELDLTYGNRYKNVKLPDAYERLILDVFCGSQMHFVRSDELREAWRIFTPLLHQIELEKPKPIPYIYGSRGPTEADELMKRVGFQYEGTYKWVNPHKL
Genome polyprotein, sequence (P29990 2492-3391 limits assumed): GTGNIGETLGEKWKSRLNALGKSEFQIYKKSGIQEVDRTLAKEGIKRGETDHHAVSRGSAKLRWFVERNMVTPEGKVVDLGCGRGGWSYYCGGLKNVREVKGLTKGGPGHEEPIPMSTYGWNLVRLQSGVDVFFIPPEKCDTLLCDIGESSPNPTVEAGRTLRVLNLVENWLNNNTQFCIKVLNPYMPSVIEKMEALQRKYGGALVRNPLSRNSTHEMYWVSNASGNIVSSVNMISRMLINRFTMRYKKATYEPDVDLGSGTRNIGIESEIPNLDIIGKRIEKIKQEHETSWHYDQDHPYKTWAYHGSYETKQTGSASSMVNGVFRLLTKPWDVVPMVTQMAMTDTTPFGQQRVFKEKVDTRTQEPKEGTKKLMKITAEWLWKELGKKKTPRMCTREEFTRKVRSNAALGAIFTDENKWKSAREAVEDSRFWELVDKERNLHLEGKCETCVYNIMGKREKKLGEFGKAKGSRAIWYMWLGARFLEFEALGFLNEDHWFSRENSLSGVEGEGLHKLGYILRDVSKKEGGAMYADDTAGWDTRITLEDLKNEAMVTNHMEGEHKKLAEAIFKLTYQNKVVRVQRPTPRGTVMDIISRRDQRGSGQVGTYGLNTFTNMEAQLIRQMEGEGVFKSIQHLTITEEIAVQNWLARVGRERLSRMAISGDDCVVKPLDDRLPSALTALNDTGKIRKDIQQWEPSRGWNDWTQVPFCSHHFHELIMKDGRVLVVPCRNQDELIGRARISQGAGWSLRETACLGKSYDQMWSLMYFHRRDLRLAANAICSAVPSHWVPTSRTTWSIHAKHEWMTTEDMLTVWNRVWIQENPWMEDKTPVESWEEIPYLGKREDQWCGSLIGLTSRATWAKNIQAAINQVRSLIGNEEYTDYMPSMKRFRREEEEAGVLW
Cytochrome P450 3A4, sequence (P08684 whole entry): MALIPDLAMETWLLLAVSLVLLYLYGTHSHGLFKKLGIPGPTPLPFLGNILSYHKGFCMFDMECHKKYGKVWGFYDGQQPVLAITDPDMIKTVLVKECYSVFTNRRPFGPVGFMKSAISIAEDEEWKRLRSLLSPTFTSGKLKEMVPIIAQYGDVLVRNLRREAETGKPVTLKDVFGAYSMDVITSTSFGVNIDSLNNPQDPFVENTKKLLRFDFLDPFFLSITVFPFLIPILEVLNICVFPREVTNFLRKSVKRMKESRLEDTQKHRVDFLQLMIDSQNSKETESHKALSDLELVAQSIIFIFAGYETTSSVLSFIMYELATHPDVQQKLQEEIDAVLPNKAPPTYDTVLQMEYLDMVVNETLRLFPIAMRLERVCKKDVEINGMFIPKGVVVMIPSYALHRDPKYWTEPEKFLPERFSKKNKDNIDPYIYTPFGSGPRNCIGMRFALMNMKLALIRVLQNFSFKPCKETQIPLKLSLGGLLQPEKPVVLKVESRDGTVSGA
Cytochrome P450 2C19, sequence (P33261 whole entry): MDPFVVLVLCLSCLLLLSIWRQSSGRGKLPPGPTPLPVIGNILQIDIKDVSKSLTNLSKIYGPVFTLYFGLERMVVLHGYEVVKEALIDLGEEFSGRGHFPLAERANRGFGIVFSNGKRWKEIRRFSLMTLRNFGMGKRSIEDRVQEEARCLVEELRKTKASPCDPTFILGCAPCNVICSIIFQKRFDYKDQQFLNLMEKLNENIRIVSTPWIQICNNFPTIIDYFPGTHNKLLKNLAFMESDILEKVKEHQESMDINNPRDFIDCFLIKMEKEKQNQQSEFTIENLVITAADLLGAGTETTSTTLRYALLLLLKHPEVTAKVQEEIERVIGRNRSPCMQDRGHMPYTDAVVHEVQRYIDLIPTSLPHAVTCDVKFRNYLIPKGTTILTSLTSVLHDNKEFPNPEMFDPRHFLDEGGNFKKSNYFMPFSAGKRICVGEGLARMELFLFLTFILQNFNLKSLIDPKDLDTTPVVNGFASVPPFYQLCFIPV
Luciferin 4-monooxygenase, sequence (P08659 whole entry): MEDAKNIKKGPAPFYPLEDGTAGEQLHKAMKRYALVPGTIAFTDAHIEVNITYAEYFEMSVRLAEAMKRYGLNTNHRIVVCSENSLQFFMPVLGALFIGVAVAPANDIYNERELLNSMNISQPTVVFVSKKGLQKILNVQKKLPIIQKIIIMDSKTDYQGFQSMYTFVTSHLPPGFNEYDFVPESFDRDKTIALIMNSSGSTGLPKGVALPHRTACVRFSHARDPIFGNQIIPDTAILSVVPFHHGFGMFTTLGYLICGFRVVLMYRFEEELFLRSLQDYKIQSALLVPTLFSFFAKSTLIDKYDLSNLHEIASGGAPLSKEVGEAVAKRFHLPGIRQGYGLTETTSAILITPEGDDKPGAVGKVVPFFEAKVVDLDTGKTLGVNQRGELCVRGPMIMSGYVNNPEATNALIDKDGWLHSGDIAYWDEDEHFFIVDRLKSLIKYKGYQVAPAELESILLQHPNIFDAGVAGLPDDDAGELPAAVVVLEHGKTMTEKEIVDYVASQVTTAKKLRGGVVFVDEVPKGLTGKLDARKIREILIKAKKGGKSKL
Cytochrome P450 2C9, sequence (P11712 whole entry): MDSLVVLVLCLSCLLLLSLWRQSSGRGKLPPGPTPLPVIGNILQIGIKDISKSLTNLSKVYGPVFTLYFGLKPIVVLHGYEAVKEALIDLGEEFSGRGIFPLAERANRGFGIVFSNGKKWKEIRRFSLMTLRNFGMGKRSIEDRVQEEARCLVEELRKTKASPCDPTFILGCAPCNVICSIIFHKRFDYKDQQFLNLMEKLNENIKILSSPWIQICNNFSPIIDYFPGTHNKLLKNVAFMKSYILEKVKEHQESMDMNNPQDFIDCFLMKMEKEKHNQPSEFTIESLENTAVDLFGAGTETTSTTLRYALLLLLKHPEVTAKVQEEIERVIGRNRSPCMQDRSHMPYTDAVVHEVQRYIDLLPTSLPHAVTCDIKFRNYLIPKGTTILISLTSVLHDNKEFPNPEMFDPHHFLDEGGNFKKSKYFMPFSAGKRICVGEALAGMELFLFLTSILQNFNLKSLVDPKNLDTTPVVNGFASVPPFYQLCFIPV

SMILES: O=C(O)/C(=C\c1c(C(=O)O)[nH]c2cc(Cl)cc(Cl)c12)c1ccccc1
- IC50 [1]: 75.5 µM (active)

SMILES: O=C(Nc1nnc(-c2ccc(F)cc2)o1)c1cc(Cl)sc1Cl
- IC50 [2]: 0.24 µM (active)
- AC50 [3]: 1.99 µM (active)
- CC50 [4]: 15.3 µM (active)
- CC50 [5]: 24.2 µM (active)
- IC50 [6]: 14.5 µM (active)

SMILES: O=C(N/N=C/c1cccc([N+](=O)[O-])c1)C(=O)N1CCCCCC1
- IC50 [7]: > 80 µM (inactive)

SMILES: C=Cn1cc[n+](CC(=O)c2ccc(Br)cc2)c1
- IC50 [6]: 15.1 µM (active)

SMILES: COc1ccc(Cl)cc1NC(=O)CN(C)S(=O)(=O)c1cccs1
- AC50 [8]: 51.2 µM (active)

SMILES: CCCCN(CCCC)c1ccc(C(=O)c2ccccc2C(=O)O)c(O)c1
- IC50 [1]: 44.1 µM (active)

SMILES: COc1ccc(CCn2c(NN=C3CCCCC3)nc3c2c(=O)[nH]c(=O)n3C)cc1
- IC50 [7]: 11.6 µM (active)

SMILES: O=C(O)CCN1C(=O)/C(=C\c2cccc(OCC(=O)Nc3ccc(Cl)cc3)c2)SC1=S
- IC50 [1]: 34.9 µM (active)

SMILES: CC(=O)O[C@H]1CC[C@@]2(C)C(=CC[C@@H]3[C@H]2CC[C@]2(C)C(=O)CC[C@H]32)C1
- AC50 [9]: 5.01 µM (inconclusive)
- AC50 [10]: 15.8 µM (inconclusive)
- AC50 [11]: inconclusive

SMILES: CCOC(=O)c1c(C)nc2sc3c(=O)n(-c4ccc(OC)cc4)nnc3c2c1-c1ccc(OC)cc1
- EC50 [12]: > 112 µM (not active)
- AC50 [9]: 2.51 µM (inconclusive)
- AC50 [11]: inconclusive
- EC50 [13]: > 112 µM (not active)

SMILES: CC(C)Cn1c(-c2ccccc2)nc2ccccc2c1=O
- IC50 [14]: > 50 µM (inactive)

SMILES: O=C(Nc1nnc(S(=O)(=O)N2CCCC2)s1)c1cccc([N+](=O)[O-])c1
- IC50 [7]: 56 µM (inactive)
